Here are results for one compound from article PMC5218480 (PLoS ONE, 2017).

The assay concerns MV-4-11 cells. In words: Gene expression microarray analysis (Affymetrix PrimeView) and GSEA. The class given is cell-based, human. Further details: RFU PODN (11730768_x_at) / Fold change /veh PODN (11730768_x_at) / RFU LINC00158 (11744669_a_at) / Fold change /veh LINC00158 (11744669_a_at) / RFU DUSP10 (11751237_a_at) / Fold change /veh DUSP10 (11751237_a_at) / RFU ID3 (11757404_x_at) / Fold change /veh ID3 (11757404_x_at) / RFU PLEKHG5 (11737974_s_at) / Fold change /veh PLEKHG5 (11737974_s_at) / RFU LRRC4B (11730491_at) / Fold change /veh LRRC4B (11730491_at) / RFU GIMAP4 (11747438_a_at) / Fold change /veh GIMAP4 (11747438_a_at) / RFU KRT8 (11758183_x_at) / Fold change /veh KRT8 (11758183_x_at) / RFU CNN1 (11734310_a_at) / Fold change /veh CNN1 (11734310_a_at) / RFU VPS37D (11726825_at) / Fold change /veh VPS37D (11726825_at) / RFU C10orf10 (11716522_x_at) / Fold change /veh C10orf10 (11716522_x_at) / RFU KIR2DL2 /// KIR2DL4 /// KIR2DL5A /// KIR2DL5B /// KIR2DS1 /// KIR2DS2 /// KIR2DS3 /// KIR2DS4 /// KIR3DL3 /// KIR3DL3 /// KIR3DS1 (11738374_at) / Fold change /veh KIR2DL2 /// KIR2DL4 /// KIR2DL5A /// KIR2DL5B /// KIR2DS1 /// KIR2DS2 /// KIR2DS3 /// KIR2DS4 /// KIR3DL3 /// KIR3DL3 /// KIR3DS1 (11738374_at) / RFU C1QL1 (11718748_at) / Fold change /veh C1QL1 (11718748_at) / RFU TMPRSS4 (11747572_a_at) / Fold change /veh TMPRSS4 (11747572_a_at) / RFU HAMP (11756126_x_at) / Fold change /veh HAMP (11756126_x_at) / RFU RNFT2 (11725882_a_at) / Fold change /veh RNFT2 (11725882_a_at) / RFU NR4A2 (11747474_a_at) / Fold change /veh NR4A2 (11747474_a_at) / RFU ABCC12 (11746883_a_at) / Fold change /veh ABCC12 (11746883_a_at) / RFU TMEM136 (11760407_x_at) / Fold change /veh TMEM136 (11760407_x_at) / RFU CLDN22 /// WWC2 (11732394_at) / Fold change /veh CLDN22 /// WWC2 (11732394_at) / RFU HLA-DPB1 (11760878_x_at) / Fold change /veh HLA-DPB1 (11760878_x_at) / RFU SPINT1 (11716480_a_at) / Fold change /veh SPINT1 (11716480_a_at) / RFU GAP43 (11754022_s_at) / Fold change /veh GAP43 (11754022_s_at) / RFU A4GNT (11735810_at) / Fold change /veh A4GNT (11735810_at) / RFU PRB3 (11715151_x_at) / Fold change /veh PRB3 (11715151_x_at) / RFU TUBB4B (11761932_at) / Fold change /veh TUBB4B (11761932_at) / RFU CAPN14 (11732068_a_at) / Fold change /veh CAPN14 (11732068_a_at) / RFU TMCC2 (11721928_a_at) / Fold change /veh TMCC2 (11721928_a_at) / RFU IRGQ (11745062_a_at) / Fold change /veh IRGQ (11745062_a_at) / RFU FAM174B (11720279_a_at) / Fold change /veh FAM174B (11720279_a_at) / RFU TMPRSS4 (11748680_a_at) / Fold change /veh TMPRSS4 (11748680_a_at) / RFU FAM212B (11763350_a_at) / Fold change /veh FAM212B (11763350_a_at) / RFU PLEKHG5 (11743358_a_at) / Fold change /veh PLEKHG5 (11743358_a_at) / RFU ZSCAN30 (11745921_a_at) / Fold change /veh ZSCAN30 (11745921_a_at) / RFU CMKLR1 (11741424_a_at) / Fold change /veh CMKLR1 (11741424_a_at) / RFU LOC101060620 /// MAPK8IP1 (11723275_at) / Fold change /veh LOC101060620 /// MAPK8IP1 (11723275_at) / RFU SPTSSB (11747773_x_at) / Fold change /veh SPTSSB (11747773_x_at) / RFU PRSS12 (11739890_at) / Fold change /veh PRSS12 (11739890_at) / RFU BIN1 (11741810_x_at) / Fold change /veh BIN1 (11741810_x_at) / RFU WNT11 (11732464_a_at) / Fold change /veh WNT11 (11732464_a_at) / RFU C10orf10 (11716521_a_at) / Fold change /veh C10orf10 (11716521_a_at) / RFU C5orf56 (11738089_at) / Fold change /veh C5orf56 (11738089_at) / RFU CYB561 (11721691_x_at) / Fold change /veh CYB561 (11721691_x_at) / RFU ANKRD19P (11752326_a_at) / Fold change /veh ANKRD19P (11752326_a_at) / RFU OR2T12 /// OR2T33 /// OR2T8 (11738714_s_at) / Fold change /veh OR2T12 /// OR2T33 /// OR2T8 (11738714_s_at) / RFU VCAN (11748164_a_at) / Fold change /veh VCAN (11748164_a_at) / RFU JSRP1 (11732532_at) / Fold change /veh JSRP1 (11732532_at) / RFU KRTAP10-11 (11738290_x_at) / Fold change /veh KRTAP10-11 (11738290_x_at) / RFU MYO3A (11730013_a_at) / Fold change /veh MYO3A (11730013_a_at) / RFU EBF3 (11725865_a_at) / Fold change /veh EBF3 (11725865_a_at) / RFU CAMK2N1 (11719241_x_at) / Fold change /veh CAMK2N1 (11719241_x_at) / RFU C5orf56 (11738088_a_at) / Fold change /veh C5orf56 (11738088_a_at) / RFU OLFML3 (11715873_a_at) / Fold change /veh OLFML3 (11715873_a_at) / RFU LOC100653217 /// NTM (11731650_a_at) / Fold change /veh LOC100653217 /// NTM (11731650_a_at) / RFU MAPK11 (11762145_a_at) / Fold change /veh MAPK11 (11762145_a_at) / RFU FIZ1 (11724087_x_at) / Fold change /veh FIZ1 (11724087_x_at) / RFU OASL (11726364_x_at) / Fold change /veh OASL (11726364_x_at) / RFU SOX15 (11748057_x_at) / Fold change /veh SOX15 (11748057_x_at) / RFU CD79A (11719716_a_at) / Fold change /veh CD79A (11719716_a_at) / RFU HIST1H1D (11736915_at) / Fold change /veh HIST1H1D (11736915_at) / RFU CASKIN2 (11723855_a_at) / Fold change /veh CASKIN2 (11723855_a_at) / RFU LOC730098 (11760151_x_at) / Fold change /veh LOC730098 (11760151_x_at) / RFU OR4N2 (11742367_at) / Fold change /veh OR4N2 (11742367_at) / RFU PRRT2 (11749266_a_at) / Fold change /veh PRRT2 (11749266_a_at) / RFU SNX32 (11753110_a_at) / Fold change /veh SNX32 (11753110_a_at) / RFU CDHR5 (11726645_a_at) / Fold change /veh CDHR5 (11726645_a_at) / RFU RCAN1 (11760418_a_at) / Fold change /veh RCAN1 (11760418_a_at) / RFU FAM167A (11723789_a_at) / Fold change /veh FAM167A (11723789_a_at) / RFU FAM26E (11764081_at) / Fold change /veh FAM26E (11764081_at) / RFU ISYNA1 (11749810_s_at) / Fold change /veh ISYNA1 (11749810_s_at) / RFU ACY1 (11761880_at) / Fold change /veh ACY1 (11761880_at) / RFU 11764098_at / Fold change /veh 11764098_at / RFU SAMD14 (11745864_x_at) / Fold change /veh SAMD14 (11745864_x_at) / RFU NPB (11741838_a_at) / Fold change /veh NPB (11741838_a_at) / RFU TMPRSS6 (11731388_a_at) / Fold change /veh TMPRSS6 (11731388_a_at) / RFU KRTAP10-2 (11738614_at) / Fold change /veh KRTAP10-2 (11738614_at) / RFU ARHGAP8 /// PRR5-ARHGAP8 (11727945_x_at) / Fold change /veh ARHGAP8 /// PRR5-ARHGAP8 (11727945_x_at) / RFU KRTAP5-7 /// NADSYN1 (11734609_at) / Fold change /veh KRTAP5-7 /// NADSYN1 (11734609_at) / RFU RASL12 (11751679_a_at) / Fold change /veh RASL12 (11751679_a_at) / RFU CDKN2B (11736163_a_at) / Fold change /veh CDKN2B (11736163_a_at) / RFU PRF1 (11729649_at) / Fold change /veh PRF1 (11729649_at) / RFU, ZNF638 /// ZNF638-IT1 / Fold change vs veh, ZNF638 /// ZNF638-IT1 / RFU, PANK3 / Fold change vs veh, PANK3 / RFU, SH3YL1 / Fold change vs veh, SH3YL1 / RFU, ZEB2 / Fold change vs veh, ZEB2 / RFU, NRIP1 / Fold change vs veh, NRIP1 / RFU, PTTG1IP / Fold change vs veh, PTTG1IP / RFU, CAPN2 / Fold change vs veh, CAPN2 / RFU, MED14 / Fold change vs veh, MED14 / RFU, SNORA58 / Fold change vs veh, SNORA58 / RFU, C1orf63 / Fold change vs veh, C1orf63 / RFU, LRRFIP1 / Fold change vs veh, LRRFIP1 / RFU, NDUFAF7 / Fold change vs veh, NDUFAF7 / RFU, SLC12A2 / Fold change vs veh, SLC12A2 / RFU, IBTK / Fold change vs veh, IBTK / RFU, ESF1 / Fold change vs veh, ESF1 / Fold change vs veh, TMEM50B / RFU, TAOK1 / Fold change vs veh, TAOK1 / RFU, ACBD3 / Fold change vs veh, ACBD3 / RFU, TMA16 / Fold change vs veh, TMA16 / RFU, RWDD3 / Fold change vs veh, RWDD3 / RFU, BCAT1 / Fold change vs veh, BCAT1 / RFU, EDEM3 / Fold change vs veh, EDEM3 / RFU, TMEM33 / Fold change vs veh, TMEM33 / RFU, WDR75 / Fold change vs veh, WDR75 / RFU, AHCTF1 / Fold change vs veh, AHCTF1 / RFU, TFRC / Fold change vs veh, TFRC / RFU, ZDHHC17 / Fold change vs veh, ZDHHC17 / RFU, NOM1 / Fold change vs veh, NOM1 / RFU, ARL8B / Fold change vs veh, ARL8B / RFU, ZBTB11 / Fold change vs veh, ZBTB11 / RFU, TAMM41 / Fold change vs veh, TAMM41 / RFU, KIAA1704 /// LOC100996395 / Fold change vs veh, KIAA1704 /// LOC100996395 / RFU, ING1 / Fold change vs veh, ING1 / RFU, TRMT61B / Fold change vs veh, TRMT61B / RFU, FUBP3 / Fold change vs veh, FUBP3 / RFU, TP53 / Fold change vs veh, TP53 / RFU, TNKS2 / Fold change vs veh, TNKS2 / RFU, ZFP14 / Fold change vs veh, ZFP14 / RFU, ACTR2 / Fold change vs veh, ACTR2 / RFU, PPP3R1 / Fold change vs veh, PPP3R1 / RFU, PIK3R1 / Fold change vs veh, PIK3R1 / RFU, HNRNPA1 / Fold change vs veh, HNRNPA1 / RFU, RNF170 / Fold change vs veh, RNF170 / RFU, ZNF28 / Fold change vs veh, ZNF28 / RFU, RNGTT / Fold change vs veh, RNGTT / RFU, OGT / Fold change vs veh, OGT / RFU, BRD1 / Fold change vs veh, BRD1 / RFU, MARS / Fold change vs veh, MARS / RFU, ZNF655 / Fold change vs veh, ZNF655 / RFU, FAHD1 / Fold change vs veh, FAHD1 / RFU, BDP1 / Fold change vs veh, BDP1 / RFU, LRRCC1 / Fold change vs veh, LRRCC1 / RFU, ARID1A / Fold change vs veh, ARID1A / RFU, ZNF146 / Fold change vs veh, ZNF146 / RFU, ZNF330 / Fold change vs veh, ZNF330 / RFU, GPN3 / Fold change vs veh, GPN3 / RFU, C9orf123 / Fold change vs veh, C9orf123 / RFU, N4BP2L2 / Fold change vs veh, N4BP2L2 / RFU, ARFIP1 / Fold change vs veh, ARFIP1 / RFU, FAM179B / Fold change vs veh, FAM179B / RFU, BCL10 / Fold change vs veh, BCL10 / RFU, UHRF1BP1L / Fold change vs veh, UHRF1BP1L / RFU, BET1 / Fold change vs veh, BET1 / RFU, CNOT2 / Fold change vs veh, CNOT2 / RFU, ZNF268 / Fold change vs veh, ZNF268 / Fold change vs veh, ZNF507 / RFU, DGCR2 / Fold change vs veh, DGCR2 / RFU, WDSUB1 / Fold change vs veh, WDSUB1 / Fold change vs veh, HSP90B1 /// MIR3652 / RFU, ADSS / Fold change vs veh, ADSS / RFU, GK / Fold change vs veh, GK / RFU, ZNF148 / Fold change vs veh, ZNF148 / RFU, TAF9 / Fold change vs veh, TAF9 / RFU, SLC1A5 / Fold change vs veh, SLC1A5 / RFU, SLMO2 / Fold change vs veh, SLMO2 / RFU, ABCC4 / Fold change vs veh, ABCC4 / RFU, LOC101060439 /// RAP1B / Fold change vs veh, LOC101060439 /// RAP1B / RFU, RFX7 / Fold change vs veh, RFX7 / RFU, GTPBP10 / Fold change vs veh, GTPBP10 / RFU, CNEP1R1 / Fold change vs veh, CNEP1R1 / RFU, BIVM-ERCC5 /// ERCC5 / Fold change vs veh, BIVM-ERCC5 /// ERCC5 / RFU, ILF3 / Fold change vs veh, ILF3 / RFU 11762660_at / Fold change /veh 11762660_at / RFU VCAN (11757783_s_at) / Fold change /veh VCAN (11757783_s_at) / RFU DDX43 (11728927_at) / Fold change /veh DDX43 (11728927_at) / RFU KRT8 (11758188_x_at) / Fold change /veh KRT8 (11758188_x_at) / RFU NKD1 (11759106_at) / Fold change /veh NKD1 (11759106_at) / RFU SRD5A1 (11742802_a_at) / Fold change /veh SRD5A1 (11742802_a_at) / RFU TPSAB1 /// TPSB2 (11721975_s_at) / Fold change /veh TPSAB1 /// TPSB2 (11721975_s_at) / RFU GSTM3 (11746129_a_at) / Fold change /veh GSTM3 (11746129_a_at) / RFU IL23R (11737362_x_at) / Fold change /veh IL23R (11737362_x_at) / RFU TMEM51 (11727254_a_at) / Fold change /veh TMEM51 (11727254_a_at) / RFU PIWIL2 (11732686_x_at) / Fold change /veh PIWIL2 (11732686_x_at) / RFU ORM1 (11744905_x_at) / Fold change /veh ORM1 (11744905_x_at) / RFU CCDC152 (11743942_at) / Fold change /veh CCDC152 (11743942_at) / RFU ECM1 (11717891_a_at) / Fold change /veh ECM1 (11717891_a_at) / RFU IL23R (11748794_a_at) / Fold change /veh IL23R (11748794_a_at) / RFU TNFAIP8L3 (11732012_x_at) / Fold change /veh TNFAIP8L3 (11732012_x_at) / RFU MBOAT4 (11741988_at) / Fold change /veh MBOAT4 (11741988_at) / RFU 11764193_at / Fold change /veh 11764193_at / RFU TMEM53 (11763286_at) / Fold change /veh TMEM53 (11763286_at) / RFU MAGEB2 (11727129_at) / Fold change /veh MAGEB2 (11727129_at) / RFU TMEM200A (11744735_a_at) / Fold change /veh TMEM200A (11744735_a_at) / RFU CCDC152 (11751479_a_at) / Fold change /veh CCDC152 (11751479_a_at) / RFU FAM211A (11726209_a_at) / Fold change /veh FAM211A (11726209_a_at) / RFU RGS16 (11746705_a_at) / Fold change /veh RGS16 (11746705_a_at) / RFU VCAN (11755009_s_at) / Fold change /veh VCAN (11755009_s_at) / RFU RHOB (11743442_s_at) / Fold change /veh RHOB (11743442_s_at) / RFU RGS16 (11720943_a_at) / Fold change /veh RGS16 (11720943_a_at) / RFU RGS16 (11720944_at) / Fold change /veh RGS16 (11720944_at) / RFU, VPS4B / Fold change vs veh, VPS4B / RFU, CREB1 / Fold change vs veh, CREB1 / RFU, DNAJC13 / Fold change vs veh, DNAJC13 / RFU, GNAQ / Fold change vs veh, GNAQ / RFU, CDK5R1 / Fold change vs veh, CDK5R1 / RFU, ZRANB3 / Fold change vs veh, ZRANB3 / RFU, CUL4A / Fold change vs veh, CUL4A / RFU, CCNY / Fold change vs veh, CCNY / RFU, UFL1 / Fold change vs veh, UFL1 / RFU, COG3 / Fold change vs veh, COG3 / RFU, DIAPH2 / Fold change vs veh, DIAPH2 / RFU, SKA2 / Fold change vs veh, SKA2 / RFU, AFF3 / Fold change vs veh, AFF3 / RFU, LMF1 / Fold change vs veh, LMF1 / RFU, IPO11 / Fold change vs veh, IPO11 / RFU, DFFB / Fold change vs veh, DFFB / RFU, FOXP1 / Fold change vs veh, FOXP1 / RFU, CARD8 / Fold change vs veh, CARD8 / RFU, STRN3 / Fold change vs veh, STRN3 / RFU, ADK / Fold change vs veh, ADK / RFU, RASSF2 / Fold change vs veh, RASSF2 / RFU, WIPF1 / Fold change vs veh, WIPF1 / RFU, LARP1B / Fold change vs veh, LARP1B / RFU, RASA1 / Fold change vs veh, RASA1 / RFU, RB1 / Fold change vs veh, RB1 / RFU, PPFIA1 / Fold change vs veh, PPFIA1 / RFU, MAT2A / Fold change vs veh, MAT2A / RFU, CCT5 / Fold change vs veh, CCT5 / RFU, WDR92 / Fold change vs veh, WDR92 / RFU, CUX1 / Fold change vs veh, CUX1 / RFU, TTC7A / Fold change vs veh, TTC7A / RFU, TMEM135 / Fold change vs veh, TMEM135 / RFU, DEPTOR / Fold change vs veh, DEPTOR / RFU, CPM / Fold change vs veh, CPM / RFU, DNAJB6 / Fold change vs veh, DNAJB6 / RFU, CACNA2D3 / Fold change vs veh, CACNA2D3 / RFU, DTX4 / Fold change vs veh, DTX4 / RFU, TFCP2 / Fold change vs veh, TFCP2 / RFU, GMCL1 /// GMCL1P1 / Fold change vs veh, GMCL1 /// GMCL1P1 / RFU, AEBP2 / Fold change vs veh, AEBP2 / RFU, SNHG1 /// SNORD22 /// SNORD25 /// SNORD26 /// SNORD27 /// SNORD28 /// SNORD29 /// SNORD31 / Fold change vs veh, SNHG1 /// SNORD22 /// SNORD25 /// SNORD26 /// SNORD27 /// SNORD28 /// SNORD29 /// SNORD31 / Fold change (Aza/veh), C12orf56 (ProbeSet 11735607_a_at) / Fold change (ACY-1035/veh), C12orf56 (ProbeSet 11735607_a_at) / Fold change (Aza/veh), FGFR1OP (ProbeSet 11751329_s_at) / Fold change (ACY-1035/veh), FGFR1OP (ProbeSet 11751329_s_at) / Fold change (Aza/veh), VPS36 (ProbeSet 11739960_a_at) / Fold change (ACY-1035/veh), VPS36 (ProbeSet 11739960_a_at) / RFU SYPL1 (11715823_x_at) / Fold change /veh SYPL1 (11715823_x_at) / RFU IGFBP7 (11715501_s_at) / Fold change /veh IGFBP7 (11715501_s_at) / RFU REEP3 (11722064_at) / Fold change /veh REEP3 (11722064_at) / RFU IGLL1 (11728026_x_at) / Fold change /veh IGLL1 (11728026_x_at): dose or concentration left out as unconfirmed. The following applies: ProbeSet 11745428_a_at; LIST D.

Structures are written as SMILES.

In the case of `Nc1ncn([C@@H]2O[C@H](CO)[C@@H](O)[C@H]2O)c(=O)n1` [azacitidine], the “Fold change vs veh, DFFB” value was determined as 0.78.
